Data: paper PMC10247784, “Physiological activation of human and mouse bitter taste receptors by bile acids” (Communications Biology, 2023)
Several values for one entry are separate records, joined by “and”; a condition that tells them apart may be missing. Equal entries are not always repeated.

Target: T1, human TAS2R14 (Homo sapiens, UniProt Q9NYV8)
T1 construct: expressed in transfected cells; host or cells: HEK293T-Gα16gust44
T1 sequence (Q9NYV8 1-317): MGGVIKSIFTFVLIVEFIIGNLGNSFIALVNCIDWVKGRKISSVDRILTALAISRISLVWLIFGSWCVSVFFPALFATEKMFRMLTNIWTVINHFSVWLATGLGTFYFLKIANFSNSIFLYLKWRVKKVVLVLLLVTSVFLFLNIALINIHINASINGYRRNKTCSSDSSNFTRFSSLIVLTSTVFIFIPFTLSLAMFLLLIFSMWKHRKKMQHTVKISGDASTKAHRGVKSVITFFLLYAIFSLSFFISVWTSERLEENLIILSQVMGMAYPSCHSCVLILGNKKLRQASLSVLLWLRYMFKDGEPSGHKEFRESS
Test: Calcium imaging assay (FLIPR), HEK293T-Gα16gust44 cells transfected with human TAS2R14
Type: cell-based
Details: for RLU: TAS2R14 trace
Method in brief: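 Fluo-4 calcium responses; ΔF/F corrected for mock transfection and buffer control; triplicate independent dose-response runs; p < 0.01 threshold.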

C[C@H](CCC(=O)O)[C@H]1CC[C@H]2[C@@H]3[C@H](O)C[C@@H]4C[C@H](O)CC[C@]4(C)[C@H]3C[C@H](O)[C@]12C [Cholic Acid, cholic acid]
Efficacy = maximal amplitude (ΔF/F) (TAS2R14, bile acids, mean): 0.2451 | Efficacy (maximal amplitude ΔF/F), individual data points (TAS2R14, bile acids, single replicates, listed as CA): 0.2582 and 0.2878 and 0.1894 | RLU (Time (s) 0): 0 RLU | RLU (Time (s) 2 (Taurocholic Acid 2.016)): 8.733 RLU | RLU (Time (s) 4 (Taurocholic Acid 4.016)): -17.1002 RLU | RLU (Time (s) 6 (Taurocholic Acid 6.016)): -14.5682 RLU | RLU (Time (s) 8 (Taurocholic Acid 8.016)): -36.4848 RLU | RLU (Time (s) 12 (Taurocholic Acid 12.016)): -26.3442 RLU | RLU (Time (s) 14 (Taurocholic Acid 14.016)): -33.528 RLU | RLU (Time (s) 16 (Taurocholic Acid 16.016)): -31.0627 RLU | RLU (Time (s) 18 (Taurocholic Acid 18.016)): -30.2662 RLU | RLU (Time (s) 18.797 (Chenodeoxycholic Acid 18.765)): -22.7559 RLU | RLU (Time (s) 20.797 (Chenodeoxycholic Acid 20.781)): -44.5987 RLU | RLU (Time (s) 22.797 (Chenodeoxycholic Acid 22.781)): 9.863 RLU | RLU (Time (s) 24.797 (Chenodeoxycholic Acid 24.781)): -6.39 RLU | RLU (Time (s) 26.797 (Chenodeoxycholic Acid 26.781)): 16.5716 RLU | RLU (Time (s) 28.797 (Chenodeoxycholic Acid 28.781)): 41.6203 RLU | RLU (Time (s) 30.797 (Chenodeoxycholic Acid 30.781)): 60.9467 RLU | RLU (Time (s) 32.797 (Chenodeoxycholic Acid 32.781)): 99 RLU | RLU (Time (s) 34.797 (Chenodeoxycholic Acid 34.781)): 154.774 RLU | RLU (Time (s) 36.797 (Chenodeoxycholic Acid 36.781)): 189.099 RLU | RLU (Time (s) 38.797 (Chenodeoxycholic Acid 38.781)): 207.548 RLU | RLU (Time (s) 40.797 (Chenodeoxycholic Acid 40.781)): 286.95 RLU | RLU (Time (s) 42.797 (Chenodeoxycholic Acid 42.781)): 332.949 RLU | RLU (Time (s) 44.797 (Chenodeoxycholic Acid 44.781)): 381.413 RLU | RLU (Time (s) 46.797 (Chenodeoxycholic Acid 46.781)): 432.303 RLU | RLU (Time (s) 48.797 (Chenodeoxycholic Acid 48.781)): 481.551 RLU | RLU (Time (s) 50.797 (Chenodeoxycholic Acid 50.781)): 522.709 RLU | RLU (Time (s) 52.797 (Chenodeoxycholic Acid 52.781)): 573.985 RLU | RLU (Time (s) 54.797 (Chenodeoxycholic Acid 54.781)): 600.804 RLU | RLU (Time (s) 56.797 (Chenodeoxycholic Acid 56.781)): 603.138 RLU | RLU (Time (s) 58.797 (Chenodeoxycholic Acid 58.781)): 677.301 RLU | RLU (Time (s) 60.797 (Chenodeoxycholic Acid 60.781)): 689.232 RLU | RLU (Time (s) 62.797 (Chenodeoxycholic Acid 62.781)): 740.761 RLU | RLU (Time (s) 64.797 (Chenodeoxycholic Acid 64.781)): 760.673 RLU | RLU (Time (s) 66.797 (Chenodeoxycholic Acid 66.781)): 793.47 RLU | RLU (Time (s) 68.797 (Chenodeoxycholic Acid 68.781)): 795.682 RLU | RLU (Time (s) 70.797 (Chenodeoxycholic Acid 70.781)): 846.508 RLU | RLU (Time (s) 72.797 (Chenodeoxycholic Acid 72.781)): 873.655 RLU | RLU (Time (s) 74.797 (Chenodeoxycholic Acid 74.781)): 945.307 RLU | RLU (Time (s) 76.797 (Chenodeoxycholic Acid 76.781)): 951.601 RLU | RLU (Time (s) 78.797 (Chenodeoxycholic Acid 78.781)): 969.484 RLU | RLU (Time (s) 80.797 (Chenodeoxycholic Acid 80.781)): 1026.08 RLU | RLU (Time (s) 82.797 (Chenodeoxycholic Acid 82.781)): 1051.68 RLU | RLU (Time (s) 84.797 (Chenodeoxycholic Acid 84.781)): 1028.13 RLU | RLU (Time (s) 86.797 (Chenodeoxycholic Acid 86.781)): 1075.38 RLU | RLU (Time (s) 88.797 (Chenodeoxycholic Acid 88.781)): 1071.24 RLU | RLU (Time (s) 90.797 (Chenodeoxycholic Acid 90.781)): 1092.31 RLU | RLU (Time (s) 92.797 (Chenodeoxycholic Acid 92.781)): 1143.7 RLU | RLU (Time (s) 94.797 (Chenodeoxycholic Acid 94.781)): 1154.9 RLU | RLU (Time (s) 96.797 (Chenodeoxycholic Acid 96.781)): 1163.63 RLU | RLU (Time (s) 98.797 (Chenodeoxycholic Acid 98.781)): 1184.89 RLU | RLU (Time (s) 100.797 (Chenodeoxycholic Acid 100.781)): 1211.25 RLU | RLU (Time (s) 102.797 (Chenodeoxycholic Acid 102.781)): 1207.36 RLU | RLU (Time (s) 104.797 (Chenodeoxycholic Acid 104.781)): 1232.88 RLU | RLU (Time (s) 106.797 (Chenodeoxycholic Acid 106.781)): 1256.04 RLU | RLU (Time (s) 108.797 (Chenodeoxycholic Acid 108.781)): 1236.19 RLU | RLU (Time (s) 110.797 (Chenodeoxycholic Acid 110.781)): 1242.72 RLU | RLU (Time (s) 112.797 (Chenodeoxycholic Acid 112.781)): 1266.26 RLU | RLU (Time (s) 114.797 (Chenodeoxycholic Acid 114.781)): 1269.15 RLU | RLU (Time (s) 116.797 (Chenodeoxycholic Acid 116.781)): 1265.61 RLU | RLU (Time (s) 118.797 (Chenodeoxycholic Acid 118.781)): 1260.33 RLU | RLU (Time (s) 120.797 (Chenodeoxycholic Acid 120.781)): 1305.24 RLU | RLU (Time (s) 122.797 (Chenodeoxycholic Acid 122.781)): 1269.8 RLU | RLU (Time (s) 124.797 (Chenodeoxycholic Acid 124.781)): 1271.64 RLU | RLU (Time (s) 126.797 (Chenodeoxycholic Acid 126.781)): 1263.68 RLU | RLU (Time (s) 128.797 (Chenodeoxycholic Acid 128.781)): 1291.8 RLU | RLU (Time (s) 130.797 (Chenodeoxycholic Acid 130.781)): 1262.68 RLU | RLU (Time (s) 132.797 (Chenodeoxycholic Acid 132.781)): 1269.55 RLU | RLU (Time (s) 134.797 (Chenodeoxycholic Acid 134.781)): 1262.84 RLU | RLU (Time (s) 136.797 (Chenodeoxycholic Acid 136.781)): 1277.95 RLU | RLU (Time (s) 137.562 (Taurocholic Acid 137.563, Chenodeoxycholic Acid 137.546)): 1261.13 RLU | RLU (Time (s) 143.578 (Taurocholic Acid 143.563, Chenodeoxycholic Acid 143.546)): 1235.79 RLU | RLU (Time (s) 149.578 (Taurocholic Acid 149.563, Chenodeoxycholic Acid 149.546)): 1235.83 RLU | RLU (Time (s) 155.578 (Taurocholic Acid 155.563, Chenodeoxycholic Acid 155.546)): 1156.37 RLU | RLU (Time (s) 161.578 (Taurocholic Acid 161.563, Chenodeoxycholic Acid 161.546)): 1154.38 RLU | RLU (Time (s) 167.578 (Taurocholic Acid 167.563, Chenodeoxycholic Acid 167.546)): 1122.87 RLU | RLU (Time (s) 173.578 (Taurocholic Acid 173.563, Chenodeoxycholic Acid 173.546)): 1009.37 RLU | RLU (Time (s) 179.578 (Taurocholic Acid 179.563, Chenodeoxycholic Acid 179.546)): 994.85 RLU | RLU (Time (s) 191.578 (Taurocholic Acid 191.563, Chenodeoxycholic Acid 191.546)): 855.583 RLU | RLU (Time (s) 197.578 (Taurocholic Acid 197.563, Chenodeoxycholic Acid 197.546)): 818.047 RLU | RLU (Time (s) 209.578 (Taurocholic Acid 209.563, Chenodeoxycholic Acid 209.546)): 723.754 RLU | RLU (Time (s) 221.578 (Taurocholic Acid 221.563, Chenodeoxycholic Acid 221.546)): 629.159 RLU | RLU (Time (s) 233.578 (Taurocholic Acid 233.563, Chenodeoxycholic Acid 233.546)): 528.668 RLU | RLU (Time (s) 239.578 (Taurocholic Acid 239.563, Chenodeoxycholic Acid 239.546)): 477.512 RLU | RLU (Time (s) 245.578 (Taurocholic Acid 245.563, Chenodeoxycholic Acid 245.546)): 438.571 RLU | RLU (Time (s) 293.578 (Taurocholic Acid 293.563, Chenodeoxycholic Acid 293.546)): 221.346 RLU | RLU (Time (s) 299.578 (Taurocholic Acid 299.563, Chenodeoxycholic Acid 299.546)): 202.892 RLU | RLU (Time (s) 305.578 (Taurocholic Acid 305.563, Chenodeoxycholic Acid 305.546)): 181.254 RLU | RLU (Time (s) 311.578 (Taurocholic Acid 311.563, Chenodeoxycholic Acid 311.546)): 152.075 RLU | RLU (Time (s) 317.578 (Taurocholic Acid 317.563, Chenodeoxycholic Acid 317.546)): 165.461 RLU | RLU (Time (s) 323.578 (Taurocholic Acid 323.563, Chenodeoxycholic Acid 323.546)): 152.075 RLU | RLU (Time (s) 329.578 (Taurocholic Acid 329.563, Chenodeoxycholic Acid 329.546)): 111.269 RLU | RLU (Time (s) 335.578 (Taurocholic Acid 335.563, Chenodeoxycholic Acid 335.546)): 88.8846 RLU | RLU (Time (s) 341.578 (Taurocholic Acid 341.563, Chenodeoxycholic Acid 341.546)): 75.1088 RLU | RLU (Time (s) 347.578 (Taurocholic Acid 347.563, Chenodeoxycholic Acid 347.546)): 60.0955 RLU | RLU (Time (s) 353.578 (Taurocholic Acid 353.563, Chenodeoxycholic Acid 353.546)): 37.7794 RLU | RLU (Time (s) 359.578 (Taurocholic Acid 359.563, Chenodeoxycholic Acid 359.546)): 47.6877 RLU | Activation threshold concentration TAS2R14 (lowest concentration with significantly increased fluorescence vs empty vector (p < 0.01)): 300 µM
